Common to all, as to assay: NCI anticancer screen, dose series, 48 h
Experiment [1] relates to IGROV1 ovarian.
For experiment [2], the system named is NCI-H522 lung.
Experiment [3] has as its system SK-OV-3 ovarian.
In experiment [4] the test system is UACC-257 melanoma.
The subject of experiment [5] is PC-3 prostate.
Experiment [6] has as its system OVCAR-8 ovarian.
Experiment [7] deals with SK-MEL-5 melanoma.
Experiment [8] has as its system OVCAR-5 ovarian.
The subject of experiment [9] is UACC-62 melanoma.
Experiment [10] deals with HCT-15 colon.

The results in this text go back to PubChem BioAssay (NCI).

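How tested: cells in 96-well plates exposed to compound for 48 hours at five concentrations. TGI: total growth inhibition.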

Regarding `O=C(Cc1nc2ccc([N+](=O)[O-])cc2[nH]c1=O)C(=O)Nc1cc(Cl)c(Cl)cc1Cl`, the TGI in experiment [1], in experiment [2], in [3], in experiment [4], in experiment [5] and in experiment [6] was more than 100 µM throughout. In addition, the TGI in experiment [7], in experiment [8], in [9] and in [10] was more than 100 µM each time.

With `COc1ccc([C@@]23CCC(=O)C[C@@H]2N(C)CC3)cc1OC`, the TGI in [1], in experiment [2], in [3], in [4], in experiment [5] and in [6] was more than 100 µM in each case. For the same molecule, the TGI in experiment [7], in experiment [8], in experiment [9] and in [10] was more than 100 µM each time.

Regarding `CSc1nc(Br)nc2c1ncn2C1CC(Oc2ccc(C)cc2)C(COc2ccc(C)cc2)O1` (stereo not given), the TGI in [1], in experiment [2], in [3], in experiment [4], in [5] and in experiment [6] was more than 100 µM each time. For the same molecule, the TGI in [7], in experiment [8], in experiment [9] and in experiment [10] was more than 100 µM each time.

On to `CC(C)CC1c2[nH]c3ccccc3c2C[C@H]2C(=O)NC(COC(C)(C)C)C(=O)N12` (stereo not given in full), for which the TGI is 63.1 µM in experiment [1]; 35.4 µM in [2]; more than 100 µM in experiment [3]; 39.3 µM in experiment [4]; 55.1 µM in [5]; more than 100 µM in experiment [6]. Moreover, the TGI turned out to be 47.4 µM in experiment [7], 54.8 µM in experiment [8], 49.5 µM in experiment [9] and 80.2 µM in experiment [10].

As for `c1csc(-c2ccc(-c3ccc(-c4cccs4)s3)s2)c1`, the TGI in experiment [1], in [2], in experiment [3], in [4], in experiment [5] and in [6] was more than 100 µM throughout. Further, the TGI in experiment [7], in experiment [8], in experiment [9] and in [10] was more than 100 µM in each case.

Take `CN(C)CCNC(=O)c1cccc2c(NC(CS)C(=O)O)c3ccccc3nc12` (stereo not given): the TGI in experiment [1] is 28 µM; in experiment [2], 20.2 µM; in experiment [3], 80.7 µM; in experiment [4] it was more than 100 µM; in experiment [5], 28.2 µM; in experiment [6], more than 100 µM. The TGI is 20 µM in experiment [7], 60.4 µM in experiment [8], more than 100 µM in experiment [9] and 26.3 µM in experiment [10].

Consider `CCCCC(=C=C1CCCCC1O)C1CCCN1C(=O)OC(C)(C)C` (stereo not given), for which the TGI worked out at 31.1 µM in [1]; 32.8 µM in experiment [2]; 31.2 µM in experiment [3]; 29.4 µM in experiment [4]; 29.6 µM in experiment [5]; 34.6 µM in [6]. The TGI turned out to be 30.9 µM in experiment [7], 29.4 µM in experiment [8], 23.4 µM in experiment [9] and 32.3 µM in experiment [10].

In the case of `O=C(O)c1ccccc1-c1ccccc1C(=O)c1ccccc1`, the TGI in [1], in experiment [2], in experiment [3], in experiment [4], in [5] and in experiment [6] was more than 100 µM throughout. The TGI in [7], in experiment [8], in experiment [9] and in experiment [10] was more than 100 µM each time.

With `CCOc1ccc(NC(=S)/N=C/C(C(=O)Nc2ccccc2C)=C(\C)O)cc1`, the TGI in experiment [1], in experiment [2], in experiment [3], in experiment [4], in experiment [5] and in experiment [6] was more than 100 µM in each case. The TGI in experiment [7], in [8], in experiment [9] and in experiment [10] was more than 100 µM in each case.

As for `CN(Cc1nc2c(N)nc(N)nc2nc1N)c1ccc(C(=O)NC(CCC(=O)O)C(=O)O)cc1` (stereo not given), the TGI in experiment [1], in experiment [2], in experiment [3], in [4], in [5] and in [6] was more than 100 µM each time. Further, the TGI in experiment [7], in experiment [8], in experiment [9] and in experiment [10] was more than 100 µM in each case.

As to `COc1cc(O)c2c(c1)C(O)C(O)CC1OC1C(=O)/C=C/CC(C)OC2=O` (stereo not given), the TGI in [1] is 20.1 µM; in [2], 8.07 µM; in [3], more than 64.9 µM; in experiment [4] it was 2.48 µM; in experiment [5], 24.9 µM; in [6], 25 µM. The TGI was determined as 15.4 µM in experiment [7], 31 µM in [8], 3.2 µM in [9] and 17 µM in experiment [10].

For the molecule `Cc1cc(S(=O)(=O)NC(=NCC(=O)NN)NN)c(S)cc1Cl`, the TGI in experiment [1], in experiment [2], in experiment [3], in experiment [4], in [5] and in experiment [6] was more than 10 µM in each case. In addition, the TGI in experiment [7], in experiment [8], in [9] and in experiment [10] was more than 10 µM throughout.

As to `COc1cc(/C=C2\C[C@H]3[C@@H]4CC=C5C[C@@H](N6CCCC6)CC[C@]5(C)[C@H]4CC[C@]3(C)[C@H]2OC(C)=O)cc(OC)c1OC`, the TGI in [1] stood at 29.9 µM; in experiment [2], 30.4 µM; in experiment [3], 29.1 µM; in [4], 33.8 µM; in experiment [5], 27.2 µM; in experiment [6], 28.7 µM. Further, the TGI in [7] is 28.4 µM; in experiment [8], 29.7 µM; in experiment [9] it was 31.7 µM; in experiment [10], 25.1 µM.
